For series [1], the target named is T1, acetylcholinesterase (Mus musculus, UniProt P21836).
T1 construct: from tissue; host or cells: mouse brain
T1 sequence (P21836 32-614): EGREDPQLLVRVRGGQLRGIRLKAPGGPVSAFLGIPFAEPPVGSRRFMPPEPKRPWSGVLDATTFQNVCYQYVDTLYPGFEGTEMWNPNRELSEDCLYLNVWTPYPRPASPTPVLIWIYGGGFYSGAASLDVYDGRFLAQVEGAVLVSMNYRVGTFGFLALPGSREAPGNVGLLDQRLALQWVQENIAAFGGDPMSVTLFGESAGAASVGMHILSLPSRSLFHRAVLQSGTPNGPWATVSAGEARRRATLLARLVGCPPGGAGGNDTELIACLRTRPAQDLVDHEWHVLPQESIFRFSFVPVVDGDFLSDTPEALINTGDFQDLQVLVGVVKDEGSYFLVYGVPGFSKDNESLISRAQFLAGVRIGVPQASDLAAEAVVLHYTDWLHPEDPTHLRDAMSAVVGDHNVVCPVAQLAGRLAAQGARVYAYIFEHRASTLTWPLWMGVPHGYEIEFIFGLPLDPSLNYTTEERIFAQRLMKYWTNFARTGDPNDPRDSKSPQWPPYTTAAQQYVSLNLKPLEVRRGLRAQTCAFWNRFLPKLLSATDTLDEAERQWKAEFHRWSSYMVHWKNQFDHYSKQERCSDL
The experiment in a line: inhibition of acetylcholinesterase activity on the mouse brain after single doses. Type of series: in vivo. The following applies: for suppression of the enzymatic activity: even at higher doses; for duration of the inhibitory activity compared with physostigmine: mouse brain acetylcholinesterase; for inhibition of the acetylcholinesterase activity, on the mouse brain: single doses in the range 0.4 - 7 mg/kg.

The test system of series [2] is mouse. The experiment in a line: analgesic activity, 2-phenylbenzoquinone test. It counts as in vivo. An excerpt:
Expte. Biol. Med. 95, 729, (1957).]
The procedure followed represents a modification of the test developed by Hoffner [Dtsch. Med. Wschr. 55, 731 (1929)].

A short description of series [3]: toxicity, LD50 i.p. (Table 1). It counts as in vivo. To be noted: 50 % of the animals died within 24 hours from the administration; for LD50 at 24 h: in vivo, ip. The procedure: LD50 is determined for the dose (mg/kg) at which 50 % of the animals died within 24 hours from the administration.
Series [4] in a line: pharmacokinetics in mouse after oral and intramuscular administration. It counts as in vivo. The procedure: The kinetics of the four products to be considered, is studied in mouse after oral and intramuscular administration, of respectively 7 and 3.5 mg/kg respectively of ESE001, ESE002, ESE003, ESE004.
The nature of series [5]: antagonist effect on the stimulating effect of scopolamine (motor activity), ESE series. It counts as in vivo. The following applies: oral administration of 2.5 mg; scopolamine 1 mg/kg. The procedure: This is countered by the oral administration of 2.5 mg of ESE001, ESE002, ESE003, ESE004.
In series [6] the test system is acetylcholinesterase activity (AchE). The experiment in a line: in vivo anticholinesterase activity (blood and brain, Ellman colorimetric method). To be noted: rats, oral, 1.5 to 4 mg/kg; sacrificed after 20, 60 and 120 minutes. Set-up: species or system Wistar male rats. The procedure: The derivatives, under question and physostigmine suspended in 2% carboxymethylcellulose, were orally administered to groups of Wistar male rats (average weight about 250 g).
On the base of the obtained results in preliminary trials, the doses utilized for the comparison were comprised beween 0.2 and 0.4 mg/kg for physostigmine and between 1.5 and 4 mg/kg for the eseroline derivatives under question.
The groups of treated rats were sacrificed after 20, 60, and 120 minutes and the blood and the brain of each animal were immediately cooled to 0°C and maintained at this temperature during the successive treatments.
The acetylcholinesterase activity (AchE) was determined by using the Ellman et al's quick colorimetric method (Biochem. Pharmacol., 7, 88, 1961) and it was expressed as enzymatic inhibition percentage.

The test system of series [7] is mouse. The experiment in a line: spontaneous motility (Dews' method modified according to Carminati). Type of series: in vivo, mouse (SWISS strain). The following applies: for reduction of spontaneous motility: oral, starting from minimal doses of 3.5-5 mg/kg, on average; for minimal doses causing a marked reduction of spontaneous motility: orally administered. An excerpt: The Dews' method was utilized, as modified according to Carminati (Arch. Int. Pharmacodyn. et Thér. 181, 68,1969).

The test system of series [8] is mouse. The experiment in a line: acute toxicity, oral LD50 in the mouse. The following applies: oral, suspension in 2% carboxymethylcellulose, observation period 7 days.
Text: (§1) The mouse was used (Swiss strain having the average weight of the male mice being 26 g and 22 g that of the female mice: 5+5 animals per dose, observation period: 7days) The oral LD50 (suspension in 2% carboxymethylcellulose) were reported hereinbelow: Tab.2
A short description of series [9]: acute toxicity, oral LD50 in the mouse. The following applies: mouse, in vivo, po.
Text: as §1

`CN1CC[C@@]2(C)c3cc(OC(=O)N4CCCC4)ccc3N(C)[C@@H]12` (relative stereo) [ESE001, (3-aS-cis)-1,2,3,3a,8,8a-hexahydro 1,3a,8-trimethylpyrrole [2,3-B]-indole 5-ol-1-pyrrolidinyl-carbamate ester]: in series [1], the “suppression of the enzymatic activity” value is “do not suppress the enzymatic activity”; the “duration of the inhibitory activity compared with physostigmine” value is “last longer than that of physostigmine”; the “inhibition of the acetylcholinesterase activity, on the mouse brain” value (“inhibition” below) was “dose-dependence, reversible inhibition”. In series [2], the analgesic activity entry is reported as “show also analgesic activity”. For the same compound, the LD50 – broadly, the dose at which mortality reaches 50% – in [3] is on record as 5 mg/kg. For the same compound, the “liver kinetics / excretion” value in [4] is “pass through into the urine unchanged”. In addition, the “countering of the stimulating effect of scopolamine” value (from here on “countering”) in series [5] is “countered”.
In [3] (1440 min), `CN1CC[C@@]2(C)c3cc(OC(=O)NN4CCCNCC4)ccc3N(C)[C@@H]12` [ESE006, (3-aS-cis)-1,2,3,3a,8,8a-hexahydro 1,3a,8-trimethylpyrrole [2,3-B]-indole 5-ol-homopiperazinylcarbamate ester] registered an LD50 of under 80 mg/kg. In series [3], this compound registered an LD50 at 24 h of over 40 mg/kg.
Taken in the same sequence, the figures for `CC1CCCC(C)N1NC(=O)Oc1ccc2c(c1)[C@]1(C)CCN(C)[C@@H]1N2C` (stereo partly drawn) [ESE007, (3-aS-cis)-1,2,3,3a,8,8a-hexahydro 1,3a,8-trimethylpyrrole [2,3-B]-indole 5-ol-1-(2,6-dimethyl) piperidine carbamate ester] were under 80 mg/kg and over 40 mg/kg.
On the same counts, the results for `CCCC1CCN(NC(=O)Oc2ccc3c(c2)[C@]2(C)CCN(C)[C@@H]2N3C)C1=O` (stereo partly drawn) [ESE011, (3-aS-cis)-1,2,3,3a,8,8a-hexahydro 1,3a,8-trimethylpyrrole [2,3-B]-indole 5-ol-1-(3-propyl)-2 pyrrolidone-carbamate ester] are under 60 mg/kg and over 30 mg/kg.
As for `CN1CC[C@@]2(C)c3cc(OC(=O)NN4CCNCC4)ccc3N(C)[C@@H]12` [ESE002, (3-aS-cis)-1,2,3,3a,8,8a-hexahydro 1,3a,8-trimethylpyrrole [2,3-B]-indole 5-ol-1-piperazinyl-carbamate ester], in [1], the “suppression of the enzymatic activity” value was “do not suppress the enzymatic activity”; the “duration of the inhibitory activity compared with physostigmine” value is listed as “last longer than that of physostigmine”; the “inhibition” value is given as “dose-dependence, reversible inhibition”. Besides, the analgesic activity entry in series [2] is “show also analgesic activity”. In [3] (1440 min), the LD50 is under 80 mg/kg. In series [3], this compound came in with an LD50 at 24 h of over 40 mg/kg. The “liver kinetics / excretion” value in [4] was “pass through into the urine unchanged”. Besides, the “countering” value in series [5] was “countered”.
Turning to `CCCC1CN(NC(=O)Oc2ccc3c(c2)[C@]2(C)CCN(C)[C@@H]2N3C)CCO1` (stereo partly drawn) [ESE009, (3-aS-cis)-1,2,3,3a,8,8a-hexahydro 1,3a,8-trimethylpyrrole [2,3-B]-indole 5-ol-4-(3-propyl)-morpholinylcarbamate ester], in [3] (1440 min), the LD50 is recorded as under 60 mg/kg. In series [3], the LD50 at 24 h was over 30 mg/kg.
For `CN1CC[C@@]2(C)c3cc(OC(=O)NN4CCOCC4)ccc3N(C)[C@@H]12` [ESE003, (3-aS-cis)-1,2,3,3a,8,8a-hexahydro 1,3a,8-trimethylpyrrole [2,3-B]-indole 5-ol-1-morpholinyl-carbamate ester], in [1], the “suppression of the enzymatic activity” value is “do not suppress the enzymatic activity”; the “duration of the inhibitory activity compared with physostigmine” value is on record as “last longer than that of physostigmine”; the “inhibition” value is reported as “dose-dependence, reversible inhibition”. Moreover, the analgesic activity result in series [2] is given as “show also analgesic activity”. Further, the LD50 in series [3] (1440 min) was under 80 mg/kg. The compound also had an LD50 at 24 h in series [3] of over 40 mg/kg. For the same compound, in series [4], the “liver kinetics / excretion” value is “pass through into the urine unchanged”. The “countering” value in series [5] was “countered”.
Consider `CN1CCC2(C)c3cc(OC(=O)NC4CCCN(CCO)C4=O)ccc3N(C)C12` (stereo not drawn) [MGT3, eseroline N-ethanol-2-piperidone-3 aminocarbamate], for which the “inhibitory activity of the acetylcholinesterase” value in series [6] was “evident dose dipendent and reversible inhibitory activity”. In series [7], the “reduction of spontaneous motility” value was about -39% and the “minimal doses causing a marked reduction of spontaneous motility” value lay within 3.5 to 5 mg/kg. The “LD50 in the mouse” value in [8] is 383,7 ± 41,2 mg/kg.
`CNC(=O)Oc1ccc2c(c1)[C@]1(C)CCN(C)[C@@H]1N2C` [Physostigmine, reference compound] showed an LD50 at 24 h in [3] of 0.64 mg/kg. For the same compound, the “LD50 in the mouse” value in series [8] is reported as 4,39 ± 1,14 mg/kg.
For `CN1CC[C@@]2(C)c3cc(OC(=O)NC4CN5CCC4CC5)ccc3N(C)[C@@H]12` (stereo partly drawn) [ESE012, (3-aS-cis)-1,2,3,3a,8,8a-hexahydro 1,3a,8-trimethylpyrrole [2,3-B]-indole 5-ol-3 quinuclidyl-carbamate ester], the LD50 in [3] (1440 min) is reported as under 60 mg/kg. Besides, in series [3], the LD50 at 24 h was over 30 mg/kg.
Taken in the same sequence, the figures for `CCCC1CCCN(NC(=O)Oc2ccc3c(c2)[C@]2(C)CCN(C)[C@@H]2N3C)C1C` (stereo partly drawn) [ESE010, (3-aS-cis)-1,2,3,3a,8,8a-hexahydro 1,3a,8-trimethylpyrrole [2,3-B]-indole 5-ol-1-(3-propyl)-2-pipecolinylcarbamate ester] were under 60 mg/kg and over 30 mg/kg.
`CN1CC[C@@]2(C)c3cc(OC(=O)NN4CCN(CCO)CC4)ccc3N(C)[C@@H]12` [ESE005]: in series [3] (1440 min), the LD50 is recorded as over 40 mg/kg. This compound returned an LD50 at 24 h in series [3] of under 80 mg/kg.
Take `CN1CC[C@@]2(C)c3cc(OC(=O)NN4CCSCC4)ccc3N(C)[C@@H]12` [ESE004, (3-aS-cis)-1,2,3,3a,8,8a-hexahydro 1,3a,8-trimethylpyrrole [2,3-B]-indole 5-ol-1-thio-morpholinyl-carbamate ester]: in series [1], the “suppression of the enzymatic activity” value is reported as “do not suppress the enzymatic activity”; the “duration of the inhibitory activity compared with physostigmine” value is listed as “last longer than that of physostigmine”; the “inhibition” value was “dose-dependence, reversible inhibition”. Also, the analgesic activity entry in [2] is given as “show also analgesic activity”. The same compound returned an LD50 in series [3] (1440 min) of under 80 mg/kg. In series [3], this compound registered an LD50 at 24 h of over 40 mg/kg. In addition, the “liver kinetics / excretion” value in series [4] is “pass through into the urine unchanged”. For the same compound, the “countering” value in series [5] is listed as “countered”.
On to `CN1CC[C@@]2(C)c3cc(OC(=O)N[C@H]4C(O)O[C@H](CO)[C@@H](O)[C@@H]4O)ccc3N(C)[C@@H]12` (stereo partly drawn) [MGT4, eseroline N-D-glucosamine carbamate], for which, in series [7], the “reduction of spontaneous motility” value is about -39% and the “minimal doses causing a marked reduction of spontaneous motility” value was 3.5 to 5 mg/kg. The compound also returned an LD50 at 168 h in [9] of 398 mg/kg.
